Counter-ions that a name gives are not always drawn.
Experiments:
[1] = molecular target: PI3Kγ (p110γ) Recombinant Human Protein (Homo sapiens (Human), UniProt P48736); assay: PI3K-γ Scintillation Proximity Assay; type: biochemical; conditions: read-out: PI3K-gamma SPA IC50
Source text: Example B. PI3K-γ Scintillation Proximity Assay
(§1) [γ-^33P]ATP (10 mCi/mL) and Wheat Germ Agglutinin (WGA) YSi SPA Scintillation Beads was purchased from Perkin-Elmer (Waltham, Mass.). Lipid kinase substrate, D-myo-Phosphatidylinositol 4,5-bisphosphate (PtdIns(4,5)P2)D (+)-sn-1,2-di-O-octanoylglyceryl, 3-O-phospho linked (PIP2), CAS 204858-53-7, was purchased from Echelon Biosciences (Salt Lake City, Utah). PI3Kγ (p110γ) Recombinant Human Protein was purchased from Life technology (Grand Island, N.Y.). ATP, MgCl2, DTT, EDTA, MOPS and CHAPS were purchased from Sigma-Aldrich (St. Louis, Mo.).
(§2) The kinase reaction was conducted in polystyrene 384-well Greiner Bio-one white plate from Thermo Fisher Scientific in a final volume of 25 μL. Inhibitors were first diluted serially in DMSO and added to the plate wells before the addition of other reaction components. The final concentration of DMSO in the assay was 2%. The PI3Kγ assay was carried out at room temperature in 20 mM MOPS, pH 6.7, 10 mM MgCl2, 5 mM DTT and CHAPS 0.03%. Reactions were initiated by the addition of ATP, the final reaction mixture consisted of 20 μM PIP2, 2 μM ATP, 0.5 μCi [γ-^33P] ATP, 13 nM PI3Kγ. Reactions were incubated for 120 min and terminated by the addition of 40 μL SPA beads suspended in quench buffer: 163 mM potassium phosphate pH 7.8, 20% glycerol, 25 mM EDTA. The final concentration of SPA beads is 1.0 mg/mL. After the plate sealing, plates were shaken overnight at room temperature and centrifuged at 1500 rpm for 10 min, the radioactivity of the product was determined by scintillation counting on Topcount (Perkin-Elmer). IC50 determination was performed by fitting the curve of percent of the solvent control activity versus the log of the inhibitor concentration using the GraphPad Prism 6.0 software.

[2] = molecular target: PI3Kδ (p110δ/p85α) Recombinant Human Protein (Homo sapiens (Human), UniProt O00329); assay: PI3Kδ Scintillation Proximity Assay; type: biochemical; conditions: read-out: PI3K-delta SPA IC50
Sequence of PI3Kδ (p110δ/p85α) Recombinant Human Protein (O00329 whole entry): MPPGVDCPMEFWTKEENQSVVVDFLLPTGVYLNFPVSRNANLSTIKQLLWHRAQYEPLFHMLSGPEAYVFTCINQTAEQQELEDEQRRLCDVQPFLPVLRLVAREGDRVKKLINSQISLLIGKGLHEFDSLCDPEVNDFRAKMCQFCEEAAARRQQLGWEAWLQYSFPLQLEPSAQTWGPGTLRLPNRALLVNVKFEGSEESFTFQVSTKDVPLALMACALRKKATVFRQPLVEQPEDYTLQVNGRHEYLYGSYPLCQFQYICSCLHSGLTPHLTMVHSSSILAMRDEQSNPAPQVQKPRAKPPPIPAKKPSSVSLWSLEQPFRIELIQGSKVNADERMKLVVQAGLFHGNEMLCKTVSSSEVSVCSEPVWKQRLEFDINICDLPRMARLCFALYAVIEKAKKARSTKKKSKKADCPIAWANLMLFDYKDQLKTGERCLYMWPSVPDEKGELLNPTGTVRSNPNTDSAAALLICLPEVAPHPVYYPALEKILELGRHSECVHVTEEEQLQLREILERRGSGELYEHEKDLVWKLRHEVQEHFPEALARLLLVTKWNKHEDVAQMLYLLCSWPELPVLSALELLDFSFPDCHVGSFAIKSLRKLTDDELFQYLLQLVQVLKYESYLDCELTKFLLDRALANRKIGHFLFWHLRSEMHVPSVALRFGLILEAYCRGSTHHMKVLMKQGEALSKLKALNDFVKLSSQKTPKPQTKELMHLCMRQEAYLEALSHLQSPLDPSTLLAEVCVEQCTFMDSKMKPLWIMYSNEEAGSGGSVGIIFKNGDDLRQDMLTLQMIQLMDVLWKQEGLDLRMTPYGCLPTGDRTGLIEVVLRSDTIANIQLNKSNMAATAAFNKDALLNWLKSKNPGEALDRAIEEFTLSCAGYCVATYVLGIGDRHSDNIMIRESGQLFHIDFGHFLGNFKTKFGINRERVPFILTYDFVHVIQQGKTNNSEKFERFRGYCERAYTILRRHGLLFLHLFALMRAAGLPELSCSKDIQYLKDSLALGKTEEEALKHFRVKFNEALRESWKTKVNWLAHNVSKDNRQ
Sequence of PI3Kδ (p110δ/p85α) Recombinant Human Protein (P27986 whole entry partner): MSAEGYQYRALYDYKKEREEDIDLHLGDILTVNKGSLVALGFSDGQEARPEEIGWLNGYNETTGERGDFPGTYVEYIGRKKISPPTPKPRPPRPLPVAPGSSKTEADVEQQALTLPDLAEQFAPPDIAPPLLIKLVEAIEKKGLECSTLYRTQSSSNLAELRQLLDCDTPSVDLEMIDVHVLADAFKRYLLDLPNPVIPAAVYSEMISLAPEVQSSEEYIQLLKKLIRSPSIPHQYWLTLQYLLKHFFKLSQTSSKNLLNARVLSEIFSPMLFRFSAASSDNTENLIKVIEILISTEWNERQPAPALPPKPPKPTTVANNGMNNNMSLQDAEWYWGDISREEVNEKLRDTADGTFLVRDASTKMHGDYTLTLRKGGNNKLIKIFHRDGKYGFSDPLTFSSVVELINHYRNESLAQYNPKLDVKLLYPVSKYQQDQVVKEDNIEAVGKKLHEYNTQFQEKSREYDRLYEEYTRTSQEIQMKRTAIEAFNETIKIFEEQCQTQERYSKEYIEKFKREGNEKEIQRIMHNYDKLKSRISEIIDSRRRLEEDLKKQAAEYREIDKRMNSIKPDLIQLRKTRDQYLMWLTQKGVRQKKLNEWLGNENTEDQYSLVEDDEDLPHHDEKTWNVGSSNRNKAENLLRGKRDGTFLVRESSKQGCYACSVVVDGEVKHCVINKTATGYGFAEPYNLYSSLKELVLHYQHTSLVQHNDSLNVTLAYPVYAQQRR
Source text: Example C. PI3Kδ Scintillation Proximity Assay
as §1, with “PI3Kδ (p110δ/p85α)” for “PI3Kγ (p110γ)”, “Eurofins (St Charles, Mo.).” for “Life technology (Grand Island, N.Y.).”
as §2, with “PI3Kδ” for “PI3Kγ”, “3.4” for “13”, “PI3Kδ.” for “PI3Kγ.”

Sequence of PI3Kγ (p110γ) Recombinant Human Protein (P48736 whole entry): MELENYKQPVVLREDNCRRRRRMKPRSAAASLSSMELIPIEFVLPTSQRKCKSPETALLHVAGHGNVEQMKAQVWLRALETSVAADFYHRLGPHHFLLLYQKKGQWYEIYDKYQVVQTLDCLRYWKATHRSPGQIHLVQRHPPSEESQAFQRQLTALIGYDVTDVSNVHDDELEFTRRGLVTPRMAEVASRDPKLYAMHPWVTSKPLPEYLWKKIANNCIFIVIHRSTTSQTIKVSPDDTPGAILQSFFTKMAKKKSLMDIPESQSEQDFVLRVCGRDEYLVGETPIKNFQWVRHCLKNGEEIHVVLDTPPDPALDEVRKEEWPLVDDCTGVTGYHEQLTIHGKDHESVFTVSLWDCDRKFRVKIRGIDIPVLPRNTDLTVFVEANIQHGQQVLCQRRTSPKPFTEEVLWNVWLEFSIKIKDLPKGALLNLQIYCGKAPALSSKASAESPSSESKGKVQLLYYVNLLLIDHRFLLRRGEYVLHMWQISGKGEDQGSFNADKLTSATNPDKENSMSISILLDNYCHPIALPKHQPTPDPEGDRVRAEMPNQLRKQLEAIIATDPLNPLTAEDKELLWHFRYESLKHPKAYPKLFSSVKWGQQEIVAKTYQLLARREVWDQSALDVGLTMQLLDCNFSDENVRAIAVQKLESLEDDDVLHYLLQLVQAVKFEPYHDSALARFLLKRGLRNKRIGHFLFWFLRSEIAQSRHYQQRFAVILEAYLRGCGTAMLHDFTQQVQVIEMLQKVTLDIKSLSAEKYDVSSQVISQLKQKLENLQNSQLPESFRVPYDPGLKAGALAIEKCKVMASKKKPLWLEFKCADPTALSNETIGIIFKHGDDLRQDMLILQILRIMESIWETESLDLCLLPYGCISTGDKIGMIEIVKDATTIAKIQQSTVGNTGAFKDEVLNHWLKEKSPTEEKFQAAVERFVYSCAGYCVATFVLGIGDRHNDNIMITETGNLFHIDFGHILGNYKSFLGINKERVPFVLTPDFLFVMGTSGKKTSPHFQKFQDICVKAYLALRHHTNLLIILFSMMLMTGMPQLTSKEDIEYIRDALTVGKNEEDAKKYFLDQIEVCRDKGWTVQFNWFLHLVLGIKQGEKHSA

SMILES | IC50 [1] [µM] | IC50 [2] [µM]
Cc1nc(-c2cc(-c3cncc(C(=O)N4CCC(c5ccccn5)C4)c3)ccn2)[nH]c1C (racemic) [Example 170, (2′-(4,5-Dimethyl-1H-imidazol-2-yl)-3,4′-bipyridin-5-yl)(3-(pyridin-2-yl)pyrrolidin-1-yl)methanone trifluoroacetate salt] | ≤ 0.1 | ≤ 0.05
c1ccc(-c2cnc(-c3cc(-c4ccc(N5CCOCC5)nc4)ccn3)[nH]2)cc1 [Example 41, 4-(2′-(5-Phenyl-1H-imidazol-2-yl)-3,4′-bipyridin-6-yl)morpholine trifluoroacetate salt] | > 0.5 | ≤ 0.05
COC(=O)c1ccc(Cn2cc(-c3ccnc(-c4ncc(-c5ccccc5)[nH]4)c3)cn2)cc1 [Example 32, Methyl 4-((4-(2-(5-phenyl-1H-imidazol-2-yl)pyridin-4-yl)-1H-pyrazol-1-yl)methyl)benzoate trifluoroacetate salt] | ≤ 0.5 | > 0.5
Cc1[nH]c(-c2cc(-c3cncc(N4CCOCC4)c3)ccn2)nc1C(=O)N(C)C1CCOC1 (racemic) [Example 261, N,5-Dimethyl-2-(5-morpholin-4-yl-3,4′-bipyridin-2′-yl)-N-(tetrahydrofuran-3-yl)-1H-imidazole-4-carboxamide] | ≤ 0.5 | ≤ 0.5
Cc1[nH]c(-c2cc(-c3cncc(N4CCOCC4)c3)ccn2)nc1CN1CCOCC1 [Example 292, 2′-[5-Methyl-4-(morpholin-4-ylmethyl)-1H-imidazol-2-yl]-5-morpholin-4-yl-3,4′-bipyridine] | ≤ 0.5 | ≤ 0.1
Cc1[nH]c(-c2cc(-c3cncc(N4CCOCC4)c3)ccn2)nc1C(C)O (racemic) [Example 124, 1-[5-Methyl-2-(5-morpholin-4-yl-3,4′-bipyridin-2′-yl)-1H-imidazol-4-yl]ethanol] | ≤ 0.5 | ≤ 0.5
O=S(=O)(c1ccccc1)N1CCC(c2c[nH]c(-c3cc(-c4cnn(Cc5ccc(Cl)cc5)c4)ccn3)n2)C1 (stereo not drawn) [Example 302, 4-[1-(4-Chlorobenzyl)-1H-pyrazol-4-yl]-2-{4-[1-(phenylsulfonyl)pyrrolichn-3-yl]-1H-imidazol-2-yl}pyridine trifluoroacetate salt] | ≤ 0.5 | ≤ 0.5
CN1CCC(CNc2cncc(-c3ccnc(-c4ncc(-c5ccccc5)[nH]4)c3)c2)CC1 [Example 144, N-((1-Methylpiperidin-4-yl)methyl)-2′-(5-phenyl-1H-imidazol-2-yl)-3,4′-bipyridin-5-amine trifluoroacetate salt] | ≤ 0.1 | ≤ 0.1
O=C(Cn1cc(-c2ccnc(-c3ncc(-c4ccccc4)[nH]3)c2)cn1)N1CCOCC1 [Example 51, 1-Morpholino-2-(4-(2-(5-phenyl-1H-imidazol-2-yl)pyridin-4-yl)-1H-pyrazol-1-yl)ethanone trifluoroacetate salt] | > 0.5 | > 0.5
Cc1nc(-c2cc(-c3cncc(Cl)c3)ccn2)[nH]c1C [Example 234, 5-Chloro-2′-(4,5-dimethyl-1H-imidazol-2-yl)-3,4′-bipyridine] | ≤ 0.1 | ≤ 0.1
COc1cncc(-c2ccnc(-c3nc(C)c(NC(C)=O)[nH]3)c2)c1 [Example 75, N-[2-(5-Methoxy-3,4′-bipyridin-2′-yl)-4-methyl-1H-imidazol-5-yl]acetamide] | > 0.5 | > 0.5
Cc1nc(-c2cc(-c3cncc(C(=O)N4CCC(O)CC4)c3)ccn2)[nH]c1C [Example 177, 1-{[2′-(4,5-Dimethyl-1H-imidazol-2-yl)-3,4′-bipyridin-5-yl]carbonyl}piperidin-4-ol] | ≤ 0.1 | ≤ 0.1
N#Cc1cccc(Cn2cc(-c3ccnc(-c4ncc(-c5ccccc5)[nH]4)c3)cn2)c1 [Example 20, 3-((4-(2-(5-Phenyl-1H-imidazol-2-yl)pyridin-4-yl)-1H-pyrazol-1-yl)methyl)benzonitrile trifluoroacetate salt] | ≤ 0.5 | > 0.5
CS(=O)(=O)N1CCC(c2c[nH]c(-c3cc(-c4cnn(Cc5ccc(Cl)cc5)c4)ccn3)n2)C1 (single isomer, unassigned) [Example 304, 4-[1-(4-Chlorobenzyl)-1H-pyrazol-4-yl]-2-{4-[1-(methylsulfonyl)pyrrolidin-3-yl]-1H-imidazol-2-yl}pyridine trifluoroacetate salt] | ≤ 0.1 | ≤ 0.5
CCN(C)C(=O)c1nc(-c2cc(-c3cncc(N4CCOCC4)c3)ccn2)[nH]c1C [Example 260, N-Ethyl-N,5-dimethyl-2-(5-morpholin-4-yl-3,4′-bipyridin-2′-yl)-1H-imidazole-4-carboxamide] | ≤ 0.5 | ≤ 0.5
COc1cncc(-c2cc(-c3nc4ccccc4[nH]3)ncn2)c1 [Example 95, trifluoroacetate salt] | > 0.5 | > 0.5
COC(=O)N1CC=C(c2cncc(-c3ccnc(-c4nc(C)c(C)[nH]4)c3)c2)C1 [Example 239, Methyl 3-(2′-(4,5-dimethyl-1H-imidazol-2-y1)-3,4′-bipyridin-5-yl)-2,5-dihydro-1H-pyrrole-1-carboxylate] | ≤ 0.5 | ≤ 0.5
COc1ccccc1Nc1nc(-c2cc(-c3cncc(N4CCOCC4)c3)ccn2)[nH]c1C [Example 307, N-(2-Methoxyphenyl)-5-methyl-2-(5-morpholin-4-yl-3,4′-bipyridin-2′-yl)-1H-imidazol-4-amine Trifluoroacetate Salt] | ≤ 0.5 | ≤ 0.05
CS(=O)(=O)n1cc(-c2ccnc(-c3ncc(-c4ccccc4)[nH]3)c2)cn1 [Example 44, 4-(1-(Methylsulfonyl)-1H-pyrazol-4-yl)-2-(5-phenyl-1H-imidazol-2-yl)pyridine trifluoroacetate salt] | > 0.5 | ≤ 0.5
CCOC(=O)c1nc(-c2cc(-c3cncc(OC)c3)ccn2)[nH]c1C(F)(F)F [Example 80, Ethyl 2-(5-methoxy-3,4′-bipyridin-2′-yl)-5-(trifluoromethyl)-1H-imidazole-4-carboxylate] | > 0.5 | > 0.5
O=C(Cn1cc(-c2ccnc(-c3ncc(-c4ccccc4)[nH]3)c2)cn1)N1CCCC1 [Example 50, 2-(4-(2-(5-Phenyl-1H-imidazol-2-yl)pyridin-4-yl)-1H-pyrazol-1-yl)-1-(pyrrolidin-1-yl)ethanone trifluoroacetate salt] | > 0.5 | > 0.5
Cc1n[nH]c(C)c1-c1ccnc(-c2ncc(-c3ccccc3)[nH]2)c1 [Example 11, 4-(3,5-Dimethyl-1H-pyrazol-4-yl)-2-(5-phenyl-1H-imidazol-2-yl)pyridine trifluoroacetate salt] | > 0.5 | > 0.5
CCNC(=O)Nc1cncc(-c2ccnc(-c3ncc(-c4ccccc4)[nH]3)c2)c1 [Example 139, N-Ethyl-N′-[2′-(5-phenyl-1H-imidazol-2-yl)-3,4′-bipyridin-5-yl]urea Trifluoroacetate Salt] | ≤ 0.5 | ≤ 0.1
Cc1nc(-c2cc(C3=CCN(CC4CCOCC4)C3)ccn2)[nH]c1C [Example 230, 2-(4,5-Dimethyl-1H-imidazol-2-yl)-4-(1-((tetrahydro-2H-pyran-4-yl)methyl)-2,5-dihydro-1H-pyrrol-3-yl)pyridine trifluoroacetate salt] | > 0.5 | > 0.5

Source: patent publication US11352340B2, “Pyridine and pyridimine compounds as PI3K-gamma inhibitors” (Incyte Corporation, priority 2016, dated 2022)
